Laboratory results published in ChEMBL document CHEMBL1201862, “PubChem BioAssay data set” (2004).
The source made the active and inactive calls.

Key:
[1] = system: BJ; experiment: BJ-TERT fibroblast viability loss – cell-based, RAS-independent, luminescence, dose response (AID 1933); type: functional; settings: Homo sapiens
[2] = Luminescence Cell-Based Dose Confirmation HTS to Identify Inhibitors of Platelet Dense Granule Release. [Related pubchem assays: 1663 (Primary HTS), 1678 (Summary of Project)]; type: functional
[3] = system: BJ; experiment: cells; type: functional, cell-based; settings: Homo sapiens
[4] = system: HEK293; experiment: EBV LMP1 TES2 canonical NF-kB signalling blockers – cell-based, HEK293, luciferase, cherry-pick, dose response (AID 588343); type: functional; settings: Homo sapiens
[5] = system: BJ; experiment: growth inhibition of engineered Ras-driven BJ cells – cell-based, alamar blue fluorescence, cherrypicked samples, dose response (AID 2631); type: functional; settings: Homo sapiens;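 note: confirmatory dose-response assay in RAS-dependent BJ fibroblasts engineered with TERT, LT and ST, with cytotoxicity read by fluorescence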
[6] = ADP-Glo luciferase signal interference – biochemical, luminescence, cherry-picked samples, set 2, artefact control for CDK5 inhibitor project, dose response (AID 504546); type: functional, cell-based
[7] = DRD fibroblast viability loss – cell-based, non-viral oncogenic, luminescence, dose response (AID 1934); type: functional; settings: Homo sapiens
[8] = biological target: Luciferin 4-monooxygenase (Photinus pyralis, UniProt P08659); experiment: inhibition of purified Photinus pyralis luciferase – biochemical, luminescence, dose response (AID 1891)
[9] = biological target: Cyclin-dependent kinase 5/CDK5 activator 1 (Homo sapiens, UniProt Q00535); experiment: blockade of human CDK5 activity – biochemical, cherry-picked samples, set 2, dose response (AID 504545)
[10] = system: BJ; experiment: BJ-TERT-LT-ST fibroblast viability loss – cell-based, RAS-independent, luminescence, dose response (AID 1935); type: functional; settings: Homo sapiens;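 note: BJ fibroblasts immortalized with TERT plus LT and ST oncogenes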
[11] = biological target: T1, Polyadenylate-binding protein 1 (Homo sapiens, UniProt P11940); experiment: blockers of PABP interaction with poly(A) – biochemical, fluorescence polarization, […] (AID 2014)
[12] = biological target: T2, DNA dC->dU-editing enzyme APOBEC-3G (Homo sapiens, UniProt Q9HC16); type: functional
[13] = biological target: T3, DNA dC->dU-editing enzyme APOBEC-3A (Homo sapiens, UniProt P31941); experiment: Dose Response confirmation of small molecule APOBEC3A DNA Deaminase Inhibitors via a fluorescence-based single-stranded DNA deaminase assay. [Related pubchem assays (depositor defined):AID493011, AID493024]; type: functional
[14] = biological target: T4, Eukaryotic translation initiation factor 4H (Homo sapiens, UniProt Q15056); experiment: eIF4H binding inhibition – biochemical, uHTS, fluorescence polarization, translation initiation inhibitor project, primary screen (AID 2012)
[15] = cells; type: functional, cell-based; settings: PPC-1
[16] = system: MDA-MB-435; experiment: cells; type: functional, cell-based; settings: Homo sapiens
[17] = biological target: T2, DNA dC->dU-editing enzyme APOBEC-3G; experiment: Dose Response confirmation of small molecule APOBEC3G DNA Deaminase Inhibitors via a fluorescence-based single-stranded DNA deaminase assay. [Related pubchem assays (depositor defined):AID493012, AID493028]; type: functional
[18] = biological target: T3, DNA dC->dU-editing enzyme APOBEC-3A; experiment: A3A deaminase inhibition for selectivity – biochemical, dose response (AID 504722); type: functional
[19] = biological target: T1, Polyadenylate-binding protein 1; experiment: PABP inhibition in translation initiation, SAR follow-up (AID 435018); type: functional
[20] = biological target: T4, Eukaryotic translation initiation factor 4H; experiment: inhibitors of translation initiation factor eIF4H – SAR follow-up (AID 435011); type: functional
[21] = biological target: Cystic fibrosis transmembrane conductance regulator/Golgi-associated PDZ and coiled-coil motif-containing protein (Homo sapiens, UniProt P13569+Q9HD26); experiment: potency against CAL PDZ-peptide interaction – biochemical, fluorescence polarization, Cerulean-tagged CAL PDZ, cherry-picks, dose response (AID 504773)
[22] = biological target: Importin subunit alpha-1 (Homo sapiens, UniProt P52292); experiment: compounds lowering YIC probe YFP/CFP ratio – biochemical, dry powder samples, FRET, counter-screen for RanGTP-importin-beta inhibitor project, dose response (AID 493094); type: functional

T3 sequence (P31941 whole entry): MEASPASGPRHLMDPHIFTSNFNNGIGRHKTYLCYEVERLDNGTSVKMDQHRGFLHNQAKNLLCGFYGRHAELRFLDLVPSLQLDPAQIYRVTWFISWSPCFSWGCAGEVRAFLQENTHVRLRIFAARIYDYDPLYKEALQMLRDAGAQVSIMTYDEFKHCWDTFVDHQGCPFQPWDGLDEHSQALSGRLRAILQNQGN
T1 sequence (P11940 whole entry): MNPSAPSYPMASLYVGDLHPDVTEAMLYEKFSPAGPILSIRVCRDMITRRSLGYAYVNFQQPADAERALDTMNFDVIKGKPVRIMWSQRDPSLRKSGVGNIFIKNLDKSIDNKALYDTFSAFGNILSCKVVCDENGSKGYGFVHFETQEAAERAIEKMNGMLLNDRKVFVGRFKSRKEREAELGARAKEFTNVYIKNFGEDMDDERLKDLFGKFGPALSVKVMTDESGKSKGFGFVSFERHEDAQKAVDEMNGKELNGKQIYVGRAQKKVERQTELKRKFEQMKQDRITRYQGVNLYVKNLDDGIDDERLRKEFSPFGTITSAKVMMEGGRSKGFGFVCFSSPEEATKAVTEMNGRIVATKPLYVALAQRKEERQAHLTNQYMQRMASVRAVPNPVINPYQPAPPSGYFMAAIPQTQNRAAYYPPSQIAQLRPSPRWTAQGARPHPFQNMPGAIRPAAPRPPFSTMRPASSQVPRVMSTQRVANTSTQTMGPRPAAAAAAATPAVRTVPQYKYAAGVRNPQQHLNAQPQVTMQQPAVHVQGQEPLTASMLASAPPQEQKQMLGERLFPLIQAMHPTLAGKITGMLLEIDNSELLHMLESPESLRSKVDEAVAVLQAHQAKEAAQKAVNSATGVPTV
T2 sequence (Q9HC16 whole entry): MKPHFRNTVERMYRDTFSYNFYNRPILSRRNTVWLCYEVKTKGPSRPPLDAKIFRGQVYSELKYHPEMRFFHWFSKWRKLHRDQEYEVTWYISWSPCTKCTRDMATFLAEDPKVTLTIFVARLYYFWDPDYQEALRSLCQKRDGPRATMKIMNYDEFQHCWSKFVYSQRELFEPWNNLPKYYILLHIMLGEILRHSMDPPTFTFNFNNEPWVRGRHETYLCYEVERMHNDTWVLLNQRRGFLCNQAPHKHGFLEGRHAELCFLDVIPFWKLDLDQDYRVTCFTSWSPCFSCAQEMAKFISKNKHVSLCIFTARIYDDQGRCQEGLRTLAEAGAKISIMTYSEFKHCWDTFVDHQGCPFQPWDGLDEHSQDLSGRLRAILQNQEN
Chain of Luciferin 4-monooxygenase (P08659 whole entry): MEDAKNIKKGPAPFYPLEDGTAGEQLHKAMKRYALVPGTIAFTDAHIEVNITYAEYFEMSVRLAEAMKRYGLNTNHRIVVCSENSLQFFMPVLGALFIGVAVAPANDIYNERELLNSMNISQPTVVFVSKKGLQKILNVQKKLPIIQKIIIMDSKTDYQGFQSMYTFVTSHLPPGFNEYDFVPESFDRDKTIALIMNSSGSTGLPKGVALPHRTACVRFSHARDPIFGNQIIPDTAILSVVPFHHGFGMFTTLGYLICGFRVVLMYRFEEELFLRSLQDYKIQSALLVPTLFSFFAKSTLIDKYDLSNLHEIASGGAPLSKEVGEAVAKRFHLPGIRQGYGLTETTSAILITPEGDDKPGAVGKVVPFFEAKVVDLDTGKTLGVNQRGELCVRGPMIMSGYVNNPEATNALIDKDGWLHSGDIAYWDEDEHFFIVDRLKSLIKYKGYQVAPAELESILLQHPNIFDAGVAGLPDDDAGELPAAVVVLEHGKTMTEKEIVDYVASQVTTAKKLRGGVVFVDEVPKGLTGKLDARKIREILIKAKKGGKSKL
Chain of Cyclin-dependent kinase 5/CDK5 activator 1 (Q00535 whole entry): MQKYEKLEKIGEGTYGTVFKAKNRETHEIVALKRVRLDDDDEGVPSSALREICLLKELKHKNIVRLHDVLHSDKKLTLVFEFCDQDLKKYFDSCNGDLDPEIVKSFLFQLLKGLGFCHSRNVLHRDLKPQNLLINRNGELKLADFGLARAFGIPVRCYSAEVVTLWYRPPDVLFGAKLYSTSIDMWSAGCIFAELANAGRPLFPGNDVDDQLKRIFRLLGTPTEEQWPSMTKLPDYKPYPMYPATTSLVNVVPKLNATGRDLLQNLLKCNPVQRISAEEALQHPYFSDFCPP
Chain of Cyclin-dependent kinase 5/CDK5 activator 1 (Q15078 whole entry, further chain): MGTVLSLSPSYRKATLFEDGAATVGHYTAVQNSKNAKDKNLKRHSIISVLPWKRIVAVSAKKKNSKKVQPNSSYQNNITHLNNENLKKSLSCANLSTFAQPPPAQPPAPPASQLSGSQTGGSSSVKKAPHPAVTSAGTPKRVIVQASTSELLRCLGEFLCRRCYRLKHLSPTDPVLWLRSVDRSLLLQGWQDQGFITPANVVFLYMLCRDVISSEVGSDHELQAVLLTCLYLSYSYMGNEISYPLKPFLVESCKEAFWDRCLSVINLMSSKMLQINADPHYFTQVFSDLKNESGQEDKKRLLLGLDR
Chain of Cystic fibrosis transmembrane conductance regulator/Golgi-associated PDZ and coiled-coil motif-containing protein (P13569 whole entry, other chains not shown): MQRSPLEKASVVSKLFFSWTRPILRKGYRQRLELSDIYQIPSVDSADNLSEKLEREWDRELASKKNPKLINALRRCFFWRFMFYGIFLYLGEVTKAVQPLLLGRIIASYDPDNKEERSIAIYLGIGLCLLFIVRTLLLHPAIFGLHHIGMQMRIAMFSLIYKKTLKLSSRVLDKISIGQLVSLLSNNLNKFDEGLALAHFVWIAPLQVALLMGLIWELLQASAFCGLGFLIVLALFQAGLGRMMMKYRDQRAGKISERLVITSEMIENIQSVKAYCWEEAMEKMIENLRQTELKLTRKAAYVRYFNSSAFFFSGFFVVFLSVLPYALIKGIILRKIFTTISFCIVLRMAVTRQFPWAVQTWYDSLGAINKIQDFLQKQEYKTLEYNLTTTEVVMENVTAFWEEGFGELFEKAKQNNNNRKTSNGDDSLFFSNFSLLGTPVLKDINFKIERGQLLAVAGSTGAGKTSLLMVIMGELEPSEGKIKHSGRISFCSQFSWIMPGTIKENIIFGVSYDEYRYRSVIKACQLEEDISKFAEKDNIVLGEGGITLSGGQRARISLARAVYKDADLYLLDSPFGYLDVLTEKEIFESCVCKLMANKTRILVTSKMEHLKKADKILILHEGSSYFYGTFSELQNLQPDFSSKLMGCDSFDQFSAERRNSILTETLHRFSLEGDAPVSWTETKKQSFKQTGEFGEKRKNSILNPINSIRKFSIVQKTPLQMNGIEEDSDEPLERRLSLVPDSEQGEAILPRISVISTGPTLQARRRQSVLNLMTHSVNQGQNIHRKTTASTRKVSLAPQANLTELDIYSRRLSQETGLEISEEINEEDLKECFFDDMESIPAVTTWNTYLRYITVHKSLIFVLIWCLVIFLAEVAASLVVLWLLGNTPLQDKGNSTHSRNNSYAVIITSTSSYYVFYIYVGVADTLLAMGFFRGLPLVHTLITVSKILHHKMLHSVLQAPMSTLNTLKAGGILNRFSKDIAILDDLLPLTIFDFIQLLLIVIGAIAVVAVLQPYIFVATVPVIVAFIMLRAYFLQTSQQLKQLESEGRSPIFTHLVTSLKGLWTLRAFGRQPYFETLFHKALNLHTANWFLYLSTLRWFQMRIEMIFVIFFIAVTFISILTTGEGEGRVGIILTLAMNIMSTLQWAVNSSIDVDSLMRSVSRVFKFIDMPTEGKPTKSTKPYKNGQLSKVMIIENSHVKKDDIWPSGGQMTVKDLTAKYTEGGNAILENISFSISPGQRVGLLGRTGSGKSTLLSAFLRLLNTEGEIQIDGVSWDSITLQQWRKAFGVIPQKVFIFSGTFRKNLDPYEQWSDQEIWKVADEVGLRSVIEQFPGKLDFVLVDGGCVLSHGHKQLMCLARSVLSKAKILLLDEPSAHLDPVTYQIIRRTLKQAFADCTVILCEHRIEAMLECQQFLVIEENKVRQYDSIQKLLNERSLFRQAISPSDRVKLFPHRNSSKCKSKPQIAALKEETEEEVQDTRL

For CCN(CC)C(=O)c1ccc(NC(=O)Nc2ccccc2F)cc1, the EC50 [1] was 4.45 µM (active), the EC50 [2] was < 0.701 µM (active) and the EC50 [3] was 4.99 µM (active). The AC50 [4] was 2.08 µM (active), the EC50 [5] was > 133 µM (inactive) and the AC50 [6] was 51.6 µM (active). The EC50 [7] was 3.5 µM (active), the EC50 [8] was 0.225 µM (active) and the AC50 [9] was 21.1 µM (active). For the same compound, the EC50 [10] was 9.1 µM (inconclusive).
For COc1cccc(NC(=O)c2ccc[n+](C)c2)c1, the IC50 [11] was 4.86 µM (active), the IC50 [12] was 2.22 µM (active) and the IC50 [13] was 2.33 µM (active). For the same compound, the IC50 [14] was > 100 µM (inactive).
In the case of CCSc1nc(O)cc(-c2ccccc2)n1, the IC50 [15] is reported as > 10 µM (inactive) and the IC50 [16] is reported as > 10 µM (inactive).
With Cc1cccc(C)c1OCc1nnc(S)n1N the IC50 [17] was 5.83 µM (active) and the IC50 [18] was > 100 µM (inactive).
With COc1cc(/C=N/NC(=O)c2ccccc2O)ccc1OCC(=O)Nc1ccc([N+](=O)[O-])cc1 the IC50 [19] was > 100 µM (inactive) and the IC50 [20] was > 100 µM (inactive).
In the case of O=C1C=C(c2ccccc2)C(c2ccccc2)C1 (configuration not stated), the AC50 [21] is reported as 17 µM (active).
For Cc1cccc(C)c1NC(=O)C1C(=O)c2sccc2N(C)S1(=O)=O (configuration not stated), the AC50 [22] was 273 µM (active).
